This is an account of results in US12139520B2 (priority 2020, dated 2024).

Numbered stars: 1 amine (or outer) side, 2 acyl side, 3 side chain; on linkers, the order of the positions; unused ones are H or OH. Bridge positions count the residues as written; N and C are the ends. Square brackets hold non-standard residues; d marks the D form. Peptide text beside a SMILES is read from it. * marks the point of attachment. C20 diacid = O=C(O)CCCCCCCCCCCCCCCCCCC(=O)*; γGlu = O=C(O)[C@H](CCC(=O)[*:2])N[*:1]; Hyp = O=C(O)[C@@H]1C[C@@H](O)CN1

This experiment concerns the target T1, hAMY3 receptor (Homo sapiens, UniProt O60896+P30988).
T1 sequence (P30988 25-474): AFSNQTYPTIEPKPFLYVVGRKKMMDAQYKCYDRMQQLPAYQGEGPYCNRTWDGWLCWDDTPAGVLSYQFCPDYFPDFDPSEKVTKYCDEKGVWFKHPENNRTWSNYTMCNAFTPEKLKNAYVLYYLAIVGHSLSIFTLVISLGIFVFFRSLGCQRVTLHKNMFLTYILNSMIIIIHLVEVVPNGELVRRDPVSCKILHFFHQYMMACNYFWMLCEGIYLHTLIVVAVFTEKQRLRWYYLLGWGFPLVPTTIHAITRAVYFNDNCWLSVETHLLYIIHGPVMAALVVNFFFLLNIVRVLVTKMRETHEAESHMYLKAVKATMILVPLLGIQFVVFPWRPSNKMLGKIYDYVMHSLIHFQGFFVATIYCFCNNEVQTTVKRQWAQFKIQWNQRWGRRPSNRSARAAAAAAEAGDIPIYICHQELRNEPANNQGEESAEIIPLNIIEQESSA
T1 sequence (O60896 24-148 partner): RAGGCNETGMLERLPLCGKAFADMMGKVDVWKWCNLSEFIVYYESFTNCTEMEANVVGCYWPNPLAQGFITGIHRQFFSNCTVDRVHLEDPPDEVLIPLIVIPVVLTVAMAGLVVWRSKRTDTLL
In words: cAMP assay for in vitro receptor activation, hAMY3-R. It counts as cell-based. Particulars: cAMP assay, hAMY3 receptor; read-out: hAMY3R EC50. The procedure, abridged: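 Monoclonal cell line stably overexpressing hAMY3 receptor, plated in DPBS with 0.05% casein and 0.5 mM IBMX, was stimulated with graded compound doses for 30 min at room temperature. cAMP accumulation was read by time-resolved FRET one hour after adding detection reagents.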
Turning to `CC[C@H](C)[C@H](NC(=O)[C@H](C)NC(=O)CNC(=O)[C@H](CC(=O)O)NC(=O)[C@H](CCCCN)NC(=O)[C@H](CC(=O)O)NC(=O)[C@@H](NC(=O)[C@H](Cc1ccccc1)NC(=O)[C@H](CCC(N)=O)NC(=O)[C@H](Cc1ccc(O)cc1)NC(=O)[C@H](CC(C)C)NC(=O)[C@H](Cc1ccccc1)NC(=O)[C@H](Cc1c[nH]cn1)NC(=O)[C@H](C)NC(=O)[C@H](CC(C)C)NC(=O)[C@H](CCCNC(=N)N)NC(=O)[C@H](CCC(N)=O)NC(=O)[C@@H](NC(=O)[C@@H](NC(=O)[C@@H]1CSSC[C@H](NC(=O)CN)C(=O)N[C@@H](CCCNC(=N)N)C(=O)N[C@@H](Cc2ccccc2)C(=O)NCC(=O)N[C@@H]([C@@H](C)O)C(=O)N1)[C@@H](C)O)C(C)C)[C@@H](C)O)C(=O)N[C@@H](C)C(=O)N1CCC[C@H]1C(=O)N[C@@H](CCCNC(=N)N)C(=O)N[C@H](C(=O)N[C@@H](CCCCN)C(=O)N[C@H](C(=O)NCC(=O)N[C@@H](CO)C(=O)N[C@@H](CCC(N)=O)C(=O)NCC(=O)N[C@@H](Cc1ccc(O)cc1)C(N)=O)[C@@H](C)CC)[C@@H](C)O` [compound 123] (H-GCRFGTCTVQRLAHFLYQFTDKDGAIAPRTKIGSQGY-NH2; disulfide 2-7; N-terminus assumed), the concentration for a half-maximal effect (EC50) came to 0.027 nM.
For `CC[C@H](C)[C@H](NC(=O)[C@H](CCC(N)=O)NC(=O)[C@H](Cc1c[nH]cn1)NC(=O)[C@H](C)NC(=O)[C@H](CC(C)C)NC(=O)[C@H](CCCNC(=N)N)NC(=O)[C@H](CCC(N)=O)NC(=O)[C@@H](NC(=O)[C@@H](NC(=O)[C@@H]1CSSC[C@H](NC(=O)CN)C(=O)N[C@@H](CCCNC(=N)N)C(=O)N[C@@H](Cc2ccccc2)C(=O)NCC(=O)N[C@@H]([C@@H](C)O)C(=O)N1)[C@@H](C)O)C(C)C)C(=O)N[C@@H](Cc1ccc(O)cc1)C(=O)N[C@@H](CCC(N)=O)C(=O)N[C@@H](Cc1ccccc1)C(=O)N[C@H](C(=O)N[C@@H](CC(=O)O)C(=O)N[C@@H](CCCCN)C(=O)N[C@@H](CC(=O)O)C(=O)N[C@@H](CCCCN)C(=O)N[C@@H](CC(=O)O)C(=O)N[C@@H](CC(N)=O)C(=O)N[C@H](C(=O)N[C@@H](C)C(=O)N1CCC[C@H]1C(=O)N[C@@H](CCCNC(=N)N)C(=O)N[C@@H](CO)C(=O)N[C@@H](CCCCN)C(=O)N[C@H](C(=O)N[C@@H](CO)C(=O)N1CCC[C@H]1C(=O)N[C@@H](CC(N)=O)C(=O)NCC(=O)N[C@@H](Cc1ccc(O)cc1)C(N)=O)C(C)C)C(C)C)[C@@H](C)O` [compound 384] (H-GCRFGTCTVQRLAHQIYQFTDKDKDNVAPRSKVSPNGY-NH2; disulfide 2-7; N-terminus assumed), the EC50 was found to be 0.036 nM.
To `CC[C@H](C)[C@H](NC(=O)[C@H](CCC(N)=O)NC(=O)[C@H](Cc1c[nH]cn1)NC(=O)[C@H](C)NC(=O)[C@H](CC(C)C)NC(=O)[C@H](CCCNC(=N)N)NC(=O)[C@H](CCC(=O)O)NC(=O)[C@@H](NC(=O)[C@@H](NC(=O)[C@@H]1CSSC[C@H](NC(=O)[C@H](CCCCN)NC(=O)CC[C@H](NC(=O)CCCCCCCCCCCCCCCCCCC(=O)O)C(=O)O)C(=O)N[C@@H](CC(N)=O)C(=O)N[C@@H]([C@@H](C)O)C(=O)N[C@@H](C)C(=O)N[C@@H]([C@@H](C)O)C(=O)N1)[C@@H](C)O)C(C)C)C(=O)N[C@@H](Cc1ccc(O)cc1)C(=O)N[C@@H](CCC(N)=O)C(=O)N[C@@H](Cc1ccccc1)C(=O)N[C@H](C(=O)N[C@@H](CC(=O)O)C(=O)N[C@@H](CCCCN)C(=O)N[C@@H](CC(=O)O)C(=O)N[C@@H](CCCCN)C(=O)N[C@@H](CC(=O)O)C(=O)N[C@@H](CC(N)=O)C(=O)N[C@H](C(=O)N[C@@H](C)C(=O)N1CCC[C@H]1C(=O)N1CCC[C@H]1C(=O)N[C@H](C(=O)N[C@@H](CC(N)=O)C(=O)N[C@H](C(=O)NCC(=O)N[C@@H](CO)C(=O)N[C@@H](CC(N)=O)C(=O)NCC(=O)N1C[C@H](O)C[C@H]1C(N)=O)C(C)C)[C@@H](C)O)C(C)C)[C@@H](C)O` [compound 55] ({C20 diacid-γGlu}-KCNTATCTVERLAHQIYQFTDKDKDNVAPPTNVGSNG[Hyp]-NH2; disulfide 2-7) belongs 0.012 nM.
As for `CC[C@H](C)[C@H](NC(=O)[C@H](CCC(N)=O)NC(=O)[C@H](Cc1c[nH]cn1)NC(=O)[C@H](C)NC(=O)[C@H](CC(C)C)NC(=O)[C@H](CCCNC(=N)N)NC(=O)[C@H](CCC(N)=O)NC(=O)[C@@H](NC(=O)[C@@H](NC(=O)[C@@H]1CSSC[C@H](NC(=O)[C@@H](N)CCCCN)C(=O)N[C@@H](CC(N)=O)C(=O)N[C@@H](Cc2ccccc2)C(=O)N[C@@H](C)C(=O)N[C@@H]([C@@H](C)O)C(=O)N1)[C@@H](C)O)C(C)C)C(=O)N[C@@H](Cc1ccc(O)cc1)C(=O)N[C@@H](CCC(N)=O)C(=O)N[C@@H](Cc1ccccc1)C(=O)N[C@H](C(=O)N[C@@H](CC(=O)O)C(=O)N[C@@H](CCCCN)C(=O)N[C@@H](CC(=O)O)C(=O)N[C@@H](CCCCN)C(=O)N[C@@H](CC(=O)O)C(=O)N[C@@H](CC(N)=O)C(=O)N[C@H](C(=O)N[C@@H](C)C(=O)N1CCC[C@H]1C(=O)N[C@@H](CCCNC(=N)N)C(=O)N[C@H](C(=O)N[C@@H](CCCCN)C(=O)N[C@H](C(=O)NCC(=O)N[C@@H](CO)C(=O)N[C@@H](CC(N)=O)C(=O)NCC(=O)N1C[C@H](O)C[C@H]1C(N)=O)C(C)C)[C@@H](C)O)C(C)C)[C@@H](C)O` [compound 3] (H-KCNFATCTVQRLAHQIYQFTDKDKDNVAPRTKVGSNG[Hyp]-NH2; disulfide 2-7), the EC50 is 0.006 nM.
To `CC[C@H](C)[C@H](NC(=O)[C@H](CC(N)=O)NC(=O)[C@@H](NC(=O)[C@H](CCCNC(=N)N)NC(=O)[C@@H]1CCCN1C(=O)[C@H](C)NC(=O)[C@@H](NC(=O)[C@H](CC(N)=O)NC(=O)[C@H](CC(=O)O)NC(=O)[C@H](CCCCN)NC(=O)[C@H](CC(=O)O)NC(=O)[C@H](CCCCN)NC(=O)[C@H](CC(=O)O)NC(=O)[C@@H](NC(=O)[C@H](Cc1ccccc1)NC(=O)[C@H](CCC(N)=O)NC(=O)[C@H](Cc1ccc(O)cc1)NC(=O)[C@@H](NC(=O)[C@H](CCC(N)=O)NC(=O)[C@H](Cc1c[nH]cn1)NC(=O)[C@H](C)NC(=O)[C@H](CC(C)C)NC(=O)[C@H](CCCNC(=N)N)NC(=O)[C@H](CCC(N)=O)NC(=O)[C@@H](NC(=O)[C@@H](NC(=O)[C@@H]1CSSC[C@H](NC(=O)CN)C(=O)N[C@@H](CCCNC(=N)N)C(=O)N[C@@H](Cc2ccccc2)C(=O)NCC(=O)N[C@@H]([C@@H](C)O)C(=O)N1)[C@@H](C)O)C(C)C)[C@@H](C)CC)[C@@H](C)O)C(C)C)[C@@H](C)O)C(=O)NCC(=O)N1CCC[C@H]1C(=O)N[C@@H](CCC(N)=O)C(=O)NCC(=O)N[C@@H](Cc1ccc(O)cc1)C(N)=O` [compound 379] (H-GCRFGTCTVQRLAHQIYQFTDKDKDNVAPRTNIGPQGY-NH2; disulfide 2-7) belongs 0.029 nM; to `CC[C@H](C)[C@H](NC(=O)[C@H](CC(N)=O)NC(=O)[C@@H](NC(=O)[C@H](CCCNC(=N)N)NC(=O)[C@@H]1CCCN1C(=O)[C@H](C)NC(=O)[C@@H](NC(=O)[C@H](CC(N)=O)NC(=O)[C@H](CC(=O)O)NC(=O)[C@H](CCCCN)NC(=O)[C@H](CC(=O)O)NC(=O)[C@H](CCCCN)NC(=O)[C@H](CC(=O)O)NC(=O)[C@@H](NC(=O)[C@H](Cc1ccccc1)NC(=O)[C@H](CCC(N)=O)NC(=O)[C@H](Cc1ccc(O)cc1)NC(=O)[C@@H](NC(=O)[C@H](CCC(N)=O)NC(=O)[C@H](Cc1c[nH]cn1)NC(=O)[C@H](C)NC(=O)[C@H](CC(C)C)NC(=O)[C@H](CCCNC(=N)N)NC(=O)[C@H](CCC(N)=O)NC(=O)[C@@H](NC(=O)[C@@H](NC(=O)[C@@H]1CSSC[C@H](NC(=O)CN)C(=O)N[C@@H](CCCNC(=N)N)C(=O)N[C@@H](Cc2ccccc2)C(=O)NCC(=O)N[C@@H]([C@@H](C)O)C(=O)N1)[C@@H](C)O)C(C)C)[C@@H](C)CC)[C@@H](C)O)C(C)C)[C@@H](C)O)C(=O)NCC(=O)N1CCC[C@H]1C(=O)N[C@@H](CC(N)=O)C(=O)NCC(=O)N[C@@H](Cc1ccc(O)cc1)C(N)=O` [compound 381] (H-GCRFGTCTVQRLAHQIYQFTDKDKDNVAPRTNIGPNGY-NH2; disulfide 2-7; N-terminus assumed), 0.032 nM; to `CC[C@H](C)[C@H](NC(=O)[C@H](CCC(N)=O)NC(=O)[C@H](Cc1c[nH]cn1)NC(=O)[C@H](C)NC(=O)[C@H](CC(C)C)NC(=O)[C@H](CCCNC(=N)N)NC(=O)[C@H](CCC(N)=O)NC(=O)[C@@H](NC(=O)[C@@H](NC(=O)[C@@H]1CSSC[C@H](NC(=O)[C@H](CCCCN)NC(=O)CC[C@H](NC(=O)CCCCCCCCCCCCCCCCCCC(=O)O)C(=O)O)C(=O)N[C@@H](CC(N)=O)C(=O)N[C@@H]([C@@H](C)O)C(=O)N[C@@H](C)C(=O)N[C@@H]([C@@H](C)O)C(=O)N1)[C@@H](C)O)C(C)C)C(=O)N[C@@H](Cc1ccc(O)cc1)C(=O)N[C@@H](CCC(N)=O)C(=O)N[C@@H](Cc1ccccc1)C(=O)N[C@H](C(=O)N[C@@H](CC(=O)O)C(=O)N[C@@H](CCCCN)C(=O)N[C@@H](CC(=O)O)C(=O)N[C@@H](CCCCN)C(=O)N[C@@H](CC(=O)O)C(=O)N[C@@H](CC(N)=O)C(=O)N[C@H](C(=O)N[C@@H](C)C(=O)N1CCC[C@H]1C(=O)N[C@@H](CCCNC(=N)N)C(=O)N[C@H](C(=O)N[C@@H](CCCCN)C(=O)N[C@H](C(=O)NCC(=O)N[C@@H](CO)C(=O)N[C@@H](CC(N)=O)C(=O)NCC(=O)N1C[C@H](O)C[C@H]1C(N)=O)C(C)C)[C@@H](C)O)C(C)C)[C@@H](C)O` [compound 99] ({C20 diacid-γGlu}-KCNTATCTVQRLAHQIYQFTDKDKDNVAPRTKVGSNG[Hyp]-NH2; disulfide 2-7), 0.017 nM.
